This note sets out measurements from patent publication US12384801B2, “Benzothiophene, thienopyridine and thienopyrimidine derivatives for the modulation of sting” (CTXT PTY LTD, priority 2019, dated 2025).

Test [1] has as its target T1, human STING (WT) (Homo sapiens (Human), UniProt Q86WV6, H232R). As to the kind of experiment: Differential scanning fluorimetry (DSF), huSTING (WT). It is filed as binding. Conditions: compound 100 μM, 2 μM protein, Tm with ligand minus Tm of protein alone (1% DMSO). Here is the method: (§1) Data were analyzed using “Meltdown analysis” protocol described by Rosa (2015).

In test [2] the target is T2, human STING (HAQ) (Homo sapiens (Human), UniProt Q86WV6, G230A/H232R/R293Q). As to the kind of experiment: Surface Plasmon Resonance (SPR), STING (HAQ). As to conditions: read-out: SPR (HAQ) KD; biotinylated STING on streptavidin chip, 8° C.
T2 sequence (Q86WV6 149-345 G230A/H232R/R293Q): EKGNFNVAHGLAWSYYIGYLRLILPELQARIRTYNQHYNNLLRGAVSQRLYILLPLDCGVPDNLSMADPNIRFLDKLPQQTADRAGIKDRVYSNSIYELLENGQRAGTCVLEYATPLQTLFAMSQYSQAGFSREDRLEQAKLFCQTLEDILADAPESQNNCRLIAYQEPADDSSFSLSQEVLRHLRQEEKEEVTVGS
The target of test [3] is T1, human STING (WT). As to the kind of experiment: Surface Plasmon Resonance (SPR), STING (WT). Conditions: read-out: SPR (WT) KD; biotinylated STING on streptavidin chip, 8° C.
The target of test [4] is T2, human STING (HAQ). As to the kind of experiment: Differential scanning fluorimetry (DSF), huSTING (HAQ). Conditions: compound 100 μM, 2 μM protein, Tm with ligand minus Tm of protein alone (1% DMSO). It is filed as binding. Here is the method: as §1
Test [5] deals with human HAQ isoform of STING (Homo sapiens (Human), UniProt Q86WV6, G230A/H232R/R293Q/R71H). As to the kind of experiment: THP-1 STING Lucia ISG reporter cell line assay. It is filed as cell-based. As to conditions: 24 h incubation, luminescence, normalized to ML RR-S2 CDA 40 μM; read-out: EC50 THP-I STING Lucia ISG cells. Here is the method: (§2) THP-1 STING Lucia ISG cells (InvivoGen #thpl-isg) were cultured in RPMI-1640 containing 2 mM L-glutamine, 25 mM HEPES, 100 μg/mL Normocin (InvivoGen) and 10% heat-inactivated FBS. Cells were seeded at a density of 7×10^5 cells/mL, maintained at 37° C./5% CO2, and passaged every 3-4 days. Selection pressure was maintained by the addition of 100 μg/mL Zeocin every second passage.
human HAQ isoform of STING, sequence (Q86WV6 whole entry R71H/G230A/H232R/R293Q, canonical isoform): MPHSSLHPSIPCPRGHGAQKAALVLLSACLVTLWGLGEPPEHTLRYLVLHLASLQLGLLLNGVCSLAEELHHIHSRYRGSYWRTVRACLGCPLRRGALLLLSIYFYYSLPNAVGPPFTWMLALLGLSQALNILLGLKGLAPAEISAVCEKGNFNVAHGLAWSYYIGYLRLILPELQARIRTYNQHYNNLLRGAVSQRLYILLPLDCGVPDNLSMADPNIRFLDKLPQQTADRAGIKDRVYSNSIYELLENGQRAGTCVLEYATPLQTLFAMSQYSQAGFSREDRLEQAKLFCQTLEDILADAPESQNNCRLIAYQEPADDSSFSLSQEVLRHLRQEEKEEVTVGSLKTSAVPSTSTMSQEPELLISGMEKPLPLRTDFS
(§3) Assay conditions: cells were harvested and resuspended at a concentration of 5×10^5 cells/mL in fresh growth media. Of this cell preparation 20 μL per well was dispensed into 384 well cell culture plates (Greiner, #781098X) and incubated at 37° C./5% CO2 for 2 hours.
(§4) Concentration Response Curves (commonly 11 doses) were prepared by 2.5 fold serial dilution starting from 10 mM compound stock solution in DMSO. Compound dilutions were transferred into the cell culture plates using a pintool (0.1 μL transfer), control wells were matched for DMSO. Positive control wells received ML RR-S2 CDA (Med Chem Express HY12885B) in 5 μL of media to a final concentration of 40 μM. All other wells received additional 5 μL of media only to equalize volume. The plates were incubated for 24 h at 37° C./5% CO2.
(§5) For the detection step, QUANTI-Luc (InvivoGen #rep-qlc1) was prepared according to manufacturer's instruction and 10 μL were added per well to the culture plates. Plates were shaken for ten seconds on an orbital shaker and left in the dark at room temperature for two minutes, before luminescence was read on a Perkin Elmer Envision plate reader.
(§6) Data analysis: Luminescence raw data was normalized % activity relative to the signal of the positive control wells and negative control wells which were not treated with compound. The following formula was used to calculate normalized % activity from raw signals: % activity=(sample−negative)/(positive−negative)
(§7) The THP-1 STING Lucia ISG cell EC50 provides an assessment of activity at the human HAQ isoform of STING. For assessing compound activity against the WT human STING isoform, an equivalent method was conducted where the cells used were THP-1-Dual KI-hSTING-R232 (InvivoGen #thpd-r232).

In test [6] the target is WT human STING isoform (Homo sapiens (Human), UniProt Q86WV6, H232R). As to the kind of experiment: THP-1-Dual KI-hSTING-R232 reporter cell line assay. It is filed as cell-based. As to conditions: 24 h incubation, luminescence, normalized to ML RR-S2 CDA 40 μM; read-out: EC50 THP-1 Dual KI-hSTING-R232 cells. Here is the method:
as §2, §3, §4, §5, §6, §7

The structures appear in SMILES notation.

T1 sequence (Q86WV6 149-345 H232R): as the sequence (Q86WV6 149-345 G230A/H232R/R293Q) above, with A82G, Q145R counted along it
WT human STING isoform, sequence (Q86WV6 whole entry H232R, canonical isoform): as the sequence (Q86WV6 whole entry R71H/G230A/H232R/R293Q, canonical isoform) above, with H71R, A230G, Q293R counted along it

Regarding `CCOC(=O)c1sc2cccc(Cl)c2c1-c1nc2cc(C(N)=O)ccc2n1CCn1c(-c2c(C(=O)OCC)sc3cccc(Cl)c23)nc2cc(C(N)=O)ccc21` [Example A1, Diethyl 3,3′-(ethane-1,2-diylbis(5-carbamoyl-1H-benzo[d]imidazole-1,2-diyl))bis(4-chlorobenzo[b]thiophene-2-carboxylate)], the ΔTm at 100 µM in test [1] was 1.84 °C; in test [4], 0.36 °C. The Kd came to 14900 nM in test [2] and 16000 nM in test [3]. The EC50 stood at 18400 nM in test [5] and 12000 nM in test [6].

`NC(=O)c1ccc2c(c1)nc(-c1c(C(=O)O)sc3c(F)ccc(Br)c13)n2CCn1c(-c2c(C(=O)O)sc3c(F)ccc(Br)c23)nc2cc(C(N)=O)ccc21` (single isomer, unassigned) [Example 20.1, 3,3′-(Ethane-1,2-diylbis(5-carbamoyl-1H-benzo[d]imidazole-1,2-diyl))bis(4-bromo-7-fluorobenzo[b]thiophene-2-carboxylic acid)]: the “DSF huSTING (WT) ΔTm” value in test [1] came to 22.71 °C. Further, the figures for the Kd in test [2] and in test [3] were 1.65 nM and 16 nM, respectively. In addition, in test [4], the “DSF huSTING (HAQ) ΔTm” value was 31.76 °C. The EC50 in test [5] was found to be 1580 nM; in test [6] it was 632 nM.

Turning to `COc1cccc2sc(C(=O)O)c(-c3nc4cc(C(N)=O)ccc4n3CCn3c(-c4c(C(=O)O)sc5cccc(OC)c45)nc4cc(C(N)=O)ccc43)c12` (single isomer, unassigned) [Example 5.1, 3,3′-(Ethane-1,2-diylbis(5-carbamoyl-1H-benzo[d]imidazole-1,2-diyl))bis(4-methoxybenzo[b]thiophene-2-carboxylic acid)], the “DSF huSTING (WT) ΔTm” value in test [1] is 6.4 °C. Besides, the values for the Kd in test [2] and in test [3] were 20.9 nM and 692 nM, respectively. Moreover, the “DSF huSTING (HAQ) ΔTm” value in test [4] worked out at 23.59 °C. Further, the EC50 in test [5] was more than 40000 nM; in test [6] it was 13600 nM.

With `NC(=O)c1ccc2c(c1)nc(-c1c(C(=O)O)sc3c(F)ccc(Cl)c13)n2CCn1c(-c2c(C(=O)O)sc3c(F)ccc(Cl)c23)nc2cc(C(N)=O)ccc21` (single isomer, unassigned) [Example 2.1, 3,3′-(Ethane-1,2-diylbis(5-carbamoyl-1H-benzo[d]imidazole-1,2-diyl))bis(4-chloro-7-fluorobenzo[b]thiophene-2-carboxylic acid)], the “DSF huSTING (WT) ΔTm” value in test [1] turned out to be 21 °C. Moreover, the values for the Kd in test [2] and in test [3] were 7.4 nM and 31 nM, respectively. The ΔTm at 100 µM in test [4] was found to be 32 °C. In addition, the EC50 was 1830 nM in test [5] and 518 nM in test [6].

For the molecule `NC(=O)c1ccc2c(c1)nc(-c1c(C(=O)O)sc3cccc(Cl)c13)n2CCCCn1c(-c2c(C(=O)O)sc3cccc(Cl)c23)nc2cc(C(N)=O)ccc21` [Example 3, 3,3′-(Butane-1,4-diylbis(5-carbamoyl-1H-benzo[d]imidazole-1,2-diyl))bis(4-chlorobenzo[b]thiophene-2-carboxylic acid)], the ΔTm at 100 µM is -1.83 °C in test [1] and -0.55 °C in test [4]. The equilibrium dissociation constant (Kd) in test [2] worked out at 5060 nM; in test [3], 6300 nM. Further, the EC50 in test [5] and in test [6] was more than 40000 nM in each case.

With `COc1ccc(F)c2sc(C(=O)O)c(-c3nc4cc(C(N)=O)ccc4n3CCn3c(-c4c(C(=O)O)sc5c(F)ccc(OC)c45)nc4cc(C(N)=O)ccc43)c12` (single isomer, unassigned) [Example 13.1, 3,3′-(Ethane-1,2-diylbis(5-carbamoyl-1H-benzo[d]imidazole-1,2-diyl))bis(7-fluoro-4-methoxybenzo[b]thiophene-2-carboxylic acid)], the “DSF huSTING (WT) ΔTm” value in test [1] turned out to be 18.17 °C. Also, the Kd came to 4 nM in test [2] and 300 nM in test [3]. For the same molecule, in test [4], the “DSF huSTING (HAQ) ΔTm” value came out at 31.23 °C. The concentration giving a half-maximal response (EC50) in test [5] was 8310 nM; in test [6], 3750 nM.

Regarding `NC(=O)c1ccc2c(c1)nc(-c1c(C(=O)O)sc3cccc(Cl)c13)n2CCCn1c(-c2c(C(=O)O)sc3cccc(Cl)c23)nc2cc(C(N)=O)ccc21` (single isomer, unassigned) [Example 4.1, 3,3′-(Propane-1,3-diylbis(5-carbamoyl-1H-benzo[d]imidazole-1,2-diyl))bis(4-chlorobenzo[b]thiophene-2-carboxylic acid)], the “DSF huSTING (WT) ΔTm” value in test [1] was −0.82 °C. Further, the Kd in test [2] was 35100 nM; in test [3], 500000 nM. Also, the “DSF huSTING (HAQ) ΔTm” value in test [4] worked out at 2.85 °C. Also, the EC50 in test [5] and in test [6] was more than 40000 nM in each case.

`NC(=O)c1ccc2c(c1)nc(-c1c(C(=O)O)sc3cccc(Br)c13)n2CCn1c(-c2c(C(=O)O)sc3cccc(Br)c23)nc2cc(C(N)=O)ccc21` (single isomer, unassigned) [Example 11.1, 3,3′-(Ethane-1,2-diylbis(5-carbamoyl-1H-benzo[d]imidazole-1,2-diyl))bis(4-bromobenzo[b]thiophene-2-carboxylic acid)]: in test [1], the “DSF huSTING (WT) ΔTm” value came out at 17.83 °C. Also, the Kd came to 1.64 nM in test [2] and 63 nM in test [3]. Further, the “DSF huSTING (HAQ) ΔTm” value in test [4] stood at 31.05 °C. The figures for the EC50 in test [5] and in test [6] were 182 nM and 172 nM, respectively.

For `NC(=O)c1ccc2c(c1)nc(-c1c(C(=O)O)sc3cccc(Cl)c13)n2CCn1c(-c2c(C(=O)O)sc3cccc(Cl)c23)nc2cc(C(N)=O)ccc21` (single isomer, unassigned) [Example 1.1, 3,3′-(Ethane-1,2-diylbis(5-carbamoyl-1H-benzo[d]imidazole-1,2-diyl))bis(4-chlorobenzo[b]thiophene-2-carboxylic acid)], the “DSF huSTING (WT) ΔTm” value in test [1] turned out to be 19.9 °C. Moreover, the Kd is 1.7 nM in test [2] and 119 nM in test [3]. Besides, the “DSF huSTING (HAQ) ΔTm” value in test [4] is 31.8 °C. Also, the 50% effective concentration (EC50) in test [5] amounted to 681 nM; in test [6] it was 271 nM.

On to `COc1cccc2sc(C(=O)O)c(-c3nc4cc(C(N)=O)ccc4n3CCn3c(-c4c(C(=O)O)sc5cccc(OC)c45)nc4cc(C(N)=O)ccc43)c12` (single isomer, unassigned) [Example 5.2, 3,3′-(Ethane-1,2-diylbis(5-carbamoyl-1H-benzo[d]imidazole-1,2-diyl))bis(4-methoxybenzo[b]thiophene-2-carboxylic acid)], for which, in test [1], the “DSF huSTING (WT) ΔTm” value worked out at 19.17 °C. Besides, the Kd came to 1.4 nM in test [2] and 122 nM in test [3]. Besides, in test [4], the ΔTm at 100 µM turned out to be 30.9 °C. The EC50 in test [5] turned out to be 1660 nM; in test [6], 489 nM.

As to `Cc1cccc2sc(C(=O)O)c(-c3nc4cc(C(N)=O)ccc4n3CCn3c(-c4c(C(=O)O)sc5cccc(C)c45)nc4cc(C(N)=O)ccc43)c12` (single isomer, unassigned) [Example 15.2, 3,3′-(Ethane-1,2-diylbis(5-carbamoyl-1H-benzo[d]imidazole-1,2-diyl))bis(4-methylbenzo[b]thiophene-2-carboxylic acid)], in test [1], the “DSF huSTING (WT) ΔTm” value amounted to 20.41 °C. The Kd in test [2] is 4.98 nM; in test [3], 191 nM. Besides, in test [4], the “DSF huSTING (HAQ) ΔTm” value worked out at 31.87 °C. The EC50 worked out at 272 nM in test [5] and 199 nM in test [6].

For `COc1nccc2sc(C(=O)O)c(-c3nc4cc(C(N)=O)ccc4n3CCn3c(-c4c(C(=O)O)sc5ccnc(OC)c45)nc4cc(C(N)=O)ccc43)c12` [Example 7, 3,3′-(Ethane-1,2-diylbis(5-carbamoyl-1H-benzo[d]imidazole-1,2-diyl))bis(4-methoxythieno[3,2-c]pyridine-2-carboxylic acid)], the ΔTm at 100 µM amounted to 0.6 °C in test [1] and 6.96 °C in test [4]. The figures for the Kd in test [2] and in test [3] were 28000 nM and 80000 nM, respectively. Also, the EC50 in test [5] is more than 40000 nM; in test [6], 7520 nM.
